Key:
[1] = Body weight gain and visceral fat weight of mice fed high-fat test diet; assay type: in vivo, C57BL/6J mice; conditions: 0.05% in high-fat diet, 10 weeks
Experimental: (§1) The obesity-inducing control diet used in the test was high-fat diet (HFD: 40% fat calorie, 17 g lard+3% corn oil/100 g diet). Diets supplemented with indole-3-carbinol derivatives (B525 and B528) had the same composition as HFD, except that each derivative was included at 0.05% (see Table 2). The diabetic drug metformin was added at 0.1% or the hyperlipidemic drug atorvastatin was added at 0.01% to HFD as controls. The normal diet group (Chow) was fed with commercially available rodent chow.
(§2) 56 5-week-old male C57BL/6J mice (Orient, Korea) were accustomed to the laboratory environment for 1 week while feeding solid feed. Then, they were randomly divided into normal diet, high-fat diet and test groups (n=8/group) and bred for a total of 10 weeks. The diet was given between 10 and 11 a.m. every day together with water. Food intake was measured every day and body weight was measured once a week. In order to avoid transient body weight increase after feed intake, body weight was measured 2 hours after removing the feed. After fasting the test animal for at least 12 hours and anesthetizing with diethyl ether, blood, liver and visceral fat (epididymal fat, perirenal fat, mesenteric fat and retroperitoneal fat) were taken and weighed after washing with 0.1 M PBS (pH 7.4). Blood taken from the abdominal aorta was centrifuged at 1000×g for 15 minutes to separate the plasma.

[2] = Biochemical analysis of blood (plasma lipids) of mice fed high-fat test diet; assay type: in vivo, C57BL/6J mice; conditions: 0.05% in high-fat diet, 10 weeks
Experimental: as §1, §2
After 10 weeks of breeding, total cholesterol, triglyceride and glucose levels in the plasma and lipid level in the liver tissue were measured as follows. Total cholesterol, triglyceride and free fatty acid levels in the plasma were measured twice for each using a commercially available kit (Bio Clinical System).

3T3-L1 cells = assay: Inhibition of adipocyte differentiation, Oil Red O staining of triglyceride; assay type: cell-based, mouse; conditions: for differentiation of the preadipocytes 3T3L1: 0.1, 1, 10, 50 and 100 μM, 14 days, vs DMSO control; for triglyceride accumulation in cells: 3T3-L1 cells, FIGS. 1-3
Experimental: Mouse adipocyte cell line (3T3-L1) was used to investigate the effect of various indole-3-carbinol derivatives on differentiation and growth of adipocytes. The preadipocytes, 3T3-L1 cells, were seeded on a 12-well plate and cultured to confluency using Dulbecco's modified Eagle's medium (DMEM) containing 1% penicillin-streptomycin, 1% nonessential amino acid and 10% fatal bovine serum (FBS), in a 5% CO2 incubator at 37° C. The 3T3-L1 cells grown to confluency were cultured for 2 days in MDI medium containing 0.5 mM isobutylmethylxanthine, 1 μM dexamethasone and 1 μg/mL insulin to differentiate them into adipocytes. Then, the cells were further cultivated in DMEM containing 1 μg/mL insulin to differentiate them into mature adipocytes. The cells were further cultured for 10 more days while replacing DMEM every other day to obtain fully differentiated adipocytes.
From the first day when MDI was added to the 3T3-L1 cells, 16 indole-3-carbinol derivative compounds were treated at concentrations of 0.1, 1, 10, 50 and 100 μM with 2-day intervals. The structure and molecular weight of the 16 indole-3-carbinol derivatives (B518, B521, B525, B528, B538, B540, B542, B544, B545, B546, B547, B549, B551, B556, B558 and B561) are described in Table 1. The derivative compounds were used after being dissolved in DMSO. Only DMSO was added to the negative control group.
After culturing for a total of 14 days, the medium was removed when the differentiation was completed and lipid droplets in the differentiated adipocytes were stained. For this, the cells were washed twice with phosphate buffered saline (PBS), fixed in 10% buffered neutral formalin (BNF) for 1 hour, washed once again with PBS, stained for 1 hour by adding 1 mL of Oil Red O dye, which specifically stains fat red, on the 12-well plate, and washed twice with distilled water. In order to measure the level of triglyceride contained in the differentiated 3T3-L1 cells, the stained lipid droplets were dissolved in 1 mL of isobutanol and optical density (OD) value was measured at 600 nm.

[3] = Fasting blood sugar and oral glucose tolerance test in mice fed high-fat test diet; assay type: in vivo, C57BL/6J mice; conditions: for reduction of fasting blood sugar level as compared to HFD: 0.05% in high-fat diet, 8 weeks
Experimental: as §1, §2
On week 8 after feeding the test diet, oral glucose tolerance test was performed for all the groups. After fasting the mouse for 16 hours, glucose (2 g glucose/10 mL distilled water/kg body weight) was orally administered. Before and 15, 30, 60 and 120 minutes after the oral administration, the tail end was cut by about […] and blood was taken. Glucose level was measured using a glucose meter.

[4] = Liver weight and lipid level in liver tissue of mice fed high-fat test diet; assay type: in vivo, C57BL/6J mice; conditions: 0.05% in high-fat diet, 10 weeks
Experimental: as §1, §2
Lipids were extracted from the liver tissue according to Folch et al.'s method Folch J et al., J Biol. Chem. 226: 497-509 (1957)). After adding 1 mL of distilled water to 0.25 g of liver tissue, the liver tissue was homogenized using a Polytron homogenizer (IKA-Werke GmbH & Co., Ultra-Turrax, Staufen, Germany). After adding 5 mL of chloroform:methanol solution (2:1, v/v) to the homogenate and mixing well, the mixture was centrifuged at 1000×g for 10 minutes. After adding 2 mL of chloroform:methanol solution (2:1, v/v) again to the supernatant, the same procedure was repeated to completely separate the lipid components of the liver. After adding 3 mL of chloroform:methanol:0.05% CaCl2 (3:48:47, v/v/v) solution to the remaining pellets and mixing well for 1 minute, followed by centrifugation at 1000×g for 10 minutes, the resulting pellets were completely dried with nitrogen gas. The dried lipids were dissolved in 1 mL of methanol and then analyzed.
The same kit (Bio Clinical System) as that used for the plasma analysis was used to measure the triglyceride and cholesterol levels of the liver tissue.

CCN1C(=O)C(O)(c2c(C)[nH]c3ccccc23)c2cc(Br)ccc21 (stereo not shown) [B528, 5′-Bromo-1′-ethyl-3′-hydroxy-2-methyl-1′,3′-dihydro-1H,2′H-3,3′-biindol-2′-one]
decrease of body weight gain as compared to HFD [1]: 30%
reduction of total visceral fat weight as compared to HFD [1]: 26%
weight of epididymal fat, perirenal fat, mesenteric fat and retroperitoneal fat as compared to HFD [1]: significantly reduced
reduction of arteriosclerotic index in blood plasma as compared to HFD [2]: 35%
reduction of total cholesterol level in blood plasma as compared to HFD [2]: 21%
reduction of triglyceride level in blood plasma as compared to HFD [2]: 38%
differentiation of the preadipocytes 3T3L1 (3T3-L1 cells): reduced the differentiation of the preadipocytes 3T3L1 in a concentration-dependent manner
triglyceride accumulation in cells (3T3-L1 cells): effectively reduce triglyceride accumulation in cells
reduction of fasting blood sugar level as compared to HFD [3]: 39%
blood glucose level after oral glucose as compared to HFD ([3]; OGTT, 15, 30, 60 and 120 minutes, week 8): decreased blood glucose level at all times
change of blood glucose level after oral glucose as compared to HFD ([3]; OGTT, after 60 minutes, week 8): −29%
area under the curve (AUC) of the blood glucose level as compared to HFD ([3]; OGTT, week 8): decreased significantly
effect on oral glucose tolerance compared to controls metformin and atorvastatin ([3]; OGTT, week 8): excellent effect of improving oral glucose tolerance, better than the controls metformin and atorvastatin
appearance of liver tissue as compared to HFD [4]: smaller and darker liver tissue
decrease of cholesterol level in liver tissue as compared to HFD [4]: 28%
decrease of liver weight as compared to HFD [4]: 31%
decrease of triglyceride level in liver tissue as compared to HFD [4]: 34%

C=CCN1C(=O)C(O)(c2c(C)[nH]c3ccccc23)c2cc(Br)ccc21 (stereo not shown) [B525, 1′-Allyl-5′-bromo-3′-hydroxy-2-methyl-1′,3′-dihydro-1H,2′H-3,3′-biindol-2′-one]
decrease of body weight gain as compared to HFD [1]: 21%
reduction of total visceral fat weight as compared to HFD [1]: 20%
weight of epididymal fat, perirenal fat, mesenteric fat and retroperitoneal fat as compared to HFD [1]: significantly reduced
reduction of arteriosclerotic index in blood plasma as compared to HFD [2]: 30%
reduction of total cholesterol level in blood plasma as compared to HFD [2]: 18%
reduction of triglyceride level in blood plasma as compared to HFD [2]: 32%
differentiation of the preadipocytes 3T3L1 (3T3-L1 cells): reduced the differentiation of the preadipocytes 3T3L1 in a concentration-dependent manner
triglyceride accumulation in cells (3T3-L1 cells): effectively reduce triglyceride accumulation in cells
reduction of fasting blood sugar level as compared to HFD [3]: 37%
effect on oral glucose tolerance compared to controls metformin and atorvastatin ([3]; OGTT, week 8): excellent effect of improving oral glucose tolerance, better than the controls metformin and atorvastatin
appearance of liver tissue as compared to HFD [4]: smaller and darker liver tissue
decrease of cholesterol level in liver tissue as compared to HFD [4]: 22%
decrease of liver weight as compared to HFD [4]: 26%
decrease of triglyceride level in liver tissue as compared to HFD [4]: 18%

From patent publication US8946283B2, “Composition for preventing or treating obesity, dyslipidemia, fatty liver or diabetes containing indole-3-carbinol derivative as active ingredient” (Industry-Academic Cooperation Foundation, Yonsei University, priority 2011, dated 2015)
